System: female Sprague-Dawley mature and young adult rats
Experiment: Ex vivo pQCT of L3 and L4 lumbar vertebrae
Format: in vivo, rat
Details: L3 + L4 vertebral bodies; for pQCT Total Area / pQCT Total BMC / pQCT Total BMD / pQCT Trabecular Area / pQCT Trabecular BMC / pQCT Trabecular BMD: mean
Description: Peripheral QCT scans were performed ex vivo using an XCT Research SA or SA+ bone scanner with software version 5.50D. Scans were obtained for the right femur, L3 and L4 lumbar vertebra for all animals euthanized at the end of the treatment period as well as two found dead animals. These two animals were scanned twice due to technical oversight, however only the first scans obtained were reported and the second scans were kept with the study file, this had no impact on the study as both scans were considered equivalent.
For the vertebrae, the scans were obtained at the midpoint. The L3 vertebrae from four animal and L4 vertebrae from four animals were damaged at trimming and L4 vertebrae from one animal was lost during trimming, consequently, no scans were obtained on these vertebrae. Additional slices were obtained as considered appropriate to ensure the optimal scans and data acquisition.
All analyses were performed using the LOOP option of the analysis software. All other data generated as a result of the LOOP option were retained with the raw data but not reported. The most appropriate analysis mode for the femur and the lumbar vertebrae was used and documented in the raw data and the analysis details are presented in Table 6. All scan analysis data was retained and re-analyses documented.

COc1ccc(Cc2c(OC3OC(CO)C(F)C(O)C3O)n[nH]c2C(F)(F)F)cc1 (stereo not drawn) [Example 5 of formula II]
pQCT Total Area, percent difference from Vehicle Control (mature adults, 10 mg/kg/day): 2.3%
pQCT Total BMC, percent difference from Vehicle Control (mature adults, 10 mg/kg/day): 5.9%
pQCT Total BMD, percent difference from Vehicle Control (mature adults, 10 mg/kg/day): 3.6%
pQCT Trabecular Area, percent difference from Vehicle Control (mature adults, 10 mg/kg/day): 2.4%
pQCT Trabecular BMC, percent difference from Vehicle Control (mature adults, 10 mg/kg/day): 9.0%
pQCT Trabecular BMD, percent difference from Vehicle Control (mature adults, 10 mg/kg/day): 6.9%
pQCT Total Area (mature adults, 10 mg/kg/day): 7.7 mm^2
pQCT Total BMC (mature adults, 10 mg/kg/day): 5.6 mg/mm
pQCT Total BMD (mature adults, 10 mg/kg/day): 727.9 mg/cm^3
pQCT Trabecular Area (mature adults, 10 mg/kg/day): 3.5 mm^2
pQCT Trabecular BMC (mature adults, 10 mg/kg/day): 1.7 mg/mm
pQCT Trabecular BMD (mature adults, 10 mg/kg/day): 486.9 mg/cm^3
pQCT Total Area, percent difference from Vehicle Control (mature adults, 50 mg/kg/day): 7.4%
pQCT Total BMC, percent difference from Vehicle Control (mature adults, 50 mg/kg/day): 12.4%
pQCT Total BMD, percent difference from Vehicle Control (mature adults, 50 mg/kg/day): 4.5%
pQCT Trabecular Area, percent difference from Vehicle Control (mature adults, 50 mg/kg/day): 7.5%
pQCT Trabecular BMC, percent difference from Vehicle Control (mature adults, 50 mg/kg/day): 15.1%
pQCT Trabecular BMD, percent difference from Vehicle Control (mature adults, 50 mg/kg/day): 6.8%
pQCT Total Area (mature adults, 50 mg/kg/day): 8.1 mm^2
pQCT Total BMC (mature adults, 50 mg/kg/day): 5.9 mg/mm
pQCT Total BMD (mature adults, 50 mg/kg/day): 734.0 mg/cm^3
pQCT Trabecular Area (mature adults, 50 mg/kg/day): 3.6 mm^2
pQCT Trabecular BMC (mature adults, 50 mg/kg/day): 1.8 mg/mm
pQCT Trabecular BMD (mature adults, 50 mg/kg/day): 486.4 mg/cm^3
pQCT Total Area, percent difference from Vehicle Control (young adults, 10 mg/kg/day): 1.7%
pQCT Total BMC, percent difference from Vehicle Control (young adults, 10 mg/kg/day): 8.5%
pQCT Total BMD, percent difference from Vehicle Control (young adults, 10 mg/kg/day): 6.9%
pQCT Trabecular Area, percent difference from Vehicle Control (young adults, 10 mg/kg/day): 1.6%
pQCT Trabecular BMC, percent difference from Vehicle Control (young adults, 10 mg/kg/day): 10.5%
pQCT Trabecular BMD, percent difference from Vehicle Control (young adults, 10 mg/kg/day): 8.9%
pQCT Total Area (young adults, 10 mg/kg/day): 7.4 mm^2
pQCT Total BMC (young adults, 10 mg/kg/day): 4.9 mg/mm
pQCT Total BMD (young adults, 10 mg/kg/day): 659.9 mg/cm^3
pQCT Trabecular Area (young adults, 10 mg/kg/day): 3.4 mm^2
pQCT Trabecular BMC (young adults, 10 mg/kg/day): 1.6 mg/mm
pQCT Trabecular BMD (young adults, 10 mg/kg/day): 461.6 mg/cm^3
pQCT Total Area, percent difference from Vehicle Control (young adults, 50 mg/kg/day): −5.1%
pQCT Total BMC, percent difference from Vehicle Control (young adults, 50 mg/kg/day): 2.7%
pQCT Total BMD, percent difference from Vehicle Control (young adults, 50 mg/kg/day): 8.6%
pQCT Trabecular Area, percent difference from Vehicle Control (young adults, 50 mg/kg/day): −5.0%
pQCT Trabecular BMC, percent difference from Vehicle Control (young adults, 50 mg/kg/day): 2.7%
pQCT Trabecular BMD, percent difference from Vehicle Control (young adults, 50 mg/kg/day): 8.9%
pQCT Total Area (young adults, 50 mg/kg/day): 6.9 mm^2
pQCT Total BMC (young adults, 50 mg/kg/day): 4.7 mg/mm
pQCT Total BMD (young adults, 50 mg/kg/day): 670.6 mg/cm^3
pQCT Trabecular Area (young adults, 50 mg/kg/day): 3.1 mm^2
pQCT Trabecular BMC (young adults, 50 mg/kg/day): 1.4 mg/mm
pQCT Trabecular BMD (young adults, 50 mg/kg/day): 461.9 mg/cm^3

— patent publication US20120270819A1, “USE OF COMPOUNDS WITH SGLT-1/SGLT-2 INHIBITOR ACTIVITY FOR PRODUCING MEDICAMENTS FOR TREATMENT OF BONE DISEASE” (SANOFI, priority 2009, published 2012)
